Patent publication US20040019429A1, “Methods and systems for analyzing complex biological systems” (priority 2001, published 2004)
Entries after “also recorded” stand apart in the source; their conditions may differ.

Tests used:
[1] = tested on: Arabidopsis thaliana plants; experiment: SOA1 phenotypic analysis of herbicide-treated plants (MIC, Tmic, leaf traits, symptom class); type: in vivo; details: for leafCurling (Dev.) / leafTwisting (Dev.) / leafWidth (Dev.) / matureLeafAnthocyanins (Dev.) / matureLeafChlorosis (Dev.) / matureLeafNecrosis (Dev.) / newLeafAnthocyanins (Dev.) / newLeafChlorosis (Dev.) / newLeafNecrosis (Dev.) / pointedLeaves (Dev.): numeric value standardized to mock treated plants; for leafCurling (Dev.) / leafTwisting (Dev.) / leafWidth (Dev.) / matureLeafAnthocyanins (Dev.) / matureLeafChlorosis (Dev.) / matureLeafNecrosis (Dev.) / newLeafAnthocyanins (Dev.) / newLeafChlorosis (Dev.) / newLeafNecrosis (Dev.) / pointedLeaves (Dev.) / tMic (Dev.): SOA1; for tMic (Dev.): score for time to full range of symptoms at the MIC; for Characteristic symptoms of treated plants (in words): SOA1 phenotypic analysis
[2] = tested on: Arabidopsis thaliana; experiment: MOA1 phenotypic profiling of sprayed plants (eleven phenotypic characteristics); type: in vivo; details: hierarchical cluster analysis of eleven phenotypic characteristics
[3] = tested on: Arabidopsis thaliana; experiment: MOA1 gene expression profiling (arrays of 22,000 Arabidopsis genes); details: for Gene expression perturbation (in words): MOA1, one-hour time point; for No. of Lethal Genes Altered: altered genes identified as essential for plant growth in internal database
[4] = tested on: Arabidopsis thaliana; experiment: MOA1 biochemical (metabolite) profiling by LC-MS and GC-MS; details: 20 minutes and 1 hour after spraying
[5] = tested on: Saccharomyces cerevisiae wild type strain BY4743; experiment: AF1 yeast metabolite analysis by GC-MS and LC-MS after antifungal drug treatment; type: cell-based; details: for Fold Change, phosphoenolpyruvate: metabolite phosphoenolpyruvate; for Fold Change, thymine: metabolite thymine; for Fold Change, urocanic acid: metabolite urocanic acid; for Fold Change, zeatin: metabolite zeatin
[6] = tested on: Magnaporthe grisea; type: cell-based
[7] = 1 hr, p < 0.5, number of genes of 22,000

## O=C(O)COc1ccc(Cl)cc1Cl [2,4-D]
[1]
  leafCurling (Dev.): 1
  leafTwisting (Dev.): 2
  leafWidth (Dev.): −1
  matureLeafAnthocyanins (Dev.): 1
  matureLeafChlorosis (Dev.): 2
  matureLeafNecrosis (Dev.): 0
  newLeafAnthocyanins (Dev.): 0
  newLeafChlorosis (Dev.): 1
  newLeafNecrosis (Dev.): 0
  pointedLeaves (Dev.): 0
  tMic (Dev.): 2
[1]; three-week-old Arabidopsis plants treated with herbicide
  Symptom Class: 5

## O=C(O)c1cc(Oc2ccc(C(F)(F)F)cc2Cl)ccc1[N+](=O)[O-] [Acifluorfen]
[1]
  Characteristic symptoms of treated plants (in words): Necrotic leaf flecks

## Nc1nc[nH]n1 [Amitrole]
[2]
  Phenotype and phenotypic clustering (in words): exhibited chlorosis and not true bleaching
[1]
  Characteristic symptoms of treated plants (in words): leaf bleaching and leaf enlargement

## COC(=O)NS(=O)(=O)c1ccc(N)cc1 [Asulam]
[3]
  Gene expression perturbation (in words): fewest gene expression perturbations
[3]; 1 hr
  No. of Lethal Genes Altered: 5

## CCNc1nc(Cl)nc(NC(C)C)n1 [Atrazine]
[1]
  Characteristic symptoms of treated plants (in words): rapid and widespread leaf necrosis

## CC(C)N1C(=O)c2ccccc2NS1(=O)=O [Bentazon]
[1]
  Characteristic symptoms of treated plants (in words): rapid and widespread leaf necrosis

## COC(=O)c1cc(Oc2ccc(Cl)cc2Cl)ccc1[N+](=O)[O-] [Bifenox]
[1]
  Characteristic symptoms of treated plants (in words): Necrotic leaf flecks

## CCSC(=O)N(CC(C)C)CC(C)C [Butylate]
[2]
  Phenotype and phenotypic clustering (in words): neither showed a strong herbicidal phenotype
[4]
  Regulated metabolites relative to control (in words): neither butylate nor chlorpropham treatment resulted in many changes in these commonly regulated metabolites

## COc1nc(C)nc(NC(=O)NS(=O)(=O)c2ccccc2Cl)n1 [Chlorsulfuron]
[3]; 1 hr
  No. of Lethal Genes Altered: 8
[1]
  Characteristic symptoms of treated plants (in words): anthocyanin accumulation in the older leaves accompanied by chlorosis of the newly emerging leaves

## c1cc[n+]2c(c1)-c1cccc[n+]1CC2 [Diquat]
[1]
  Characteristic symptoms of treated plants (in words): rapid and widespread leaf necrosis
  leafCurling (Dev.): 2
  leafTwisting (Dev.): 0
  leafWidth (Dev.): −2
  matureLeafAnthocyanins (Dev.): 0
  matureLeafChlorosis (Dev.): 1
  matureLeafNecrosis (Dev.): 4
  newLeafAnthocyanins (Dev.): 0
  newLeafChlorosis (Dev.): 1
  newLeafNecrosis (Dev.): 4
  pointedLeaves (Dev.): 1
  tMic (Dev.): 2

## CN(C)C(=O)Nc1ccc(Cl)c(Cl)c1 [Diuron]
[1]
  Characteristic symptoms of treated plants (in words): rapid and widespread leaf necrosis
  leafCurling (Dev.): 1
  leafTwisting (Dev.): 0
  leafWidth (Dev.): −2
  matureLeafAnthocyanins (Dev.): 0
  matureLeafChlorosis (Dev.): 2
  matureLeafNecrosis (Dev.): 4
  newLeafAnthocyanins (Dev.): newLeafAnthocyanins 0
  newLeafChlorosis (Dev.): 2
  newLeafNecrosis (Dev.): 4
  pointedLeaves (Dev.): 1
  tMic (Dev.): 1

## OC(Cn1cncn1)(Cn1cncn1)c1ccc(F)cc1F [Fluconazole]
[5]; platform LC
  Fold Change, abscisic acid: 0
  Fold Change, adenosine: 0

## CP(=O)(O)CCC(N)C(=O)O (stereo not shown) [Glufosinate]
[6]
  Growth of M. grisea on various nitrogen sources, Tier 4: only able to utilize glutamine and glutamate as nitrogen sources
[3]; [7]
  Regulated Genes Following Herbicide Treatment: Down: 54
[3]; 1 hr
  No. of Lethal Genes Altered: 10
[1]
  Characteristic symptoms of treated plants (in words): Chlorosis and leaf curling
  leafCurling (Dev.): 2
  leafTwisting (Dev.): 1
  leafWidth (Dev.): −2
  matureLeafAnthocyanins (Dev.): 0
  matureLeafChlorosis (Dev.): 3
  matureLeafNecrosis (Dev.): 0
  newLeafAnthocyanins (Dev.): 0
  newLeafChlorosis (Dev.): 3
  newLeafNecrosis (Dev.): 0
  pointedLeaves (Dev.): 1
  tMic (Dev.): 1
[4]
  Regulated metabolites relative to control (in words): Only a few, if any, stress-related metabolites were observed

## O=C(O)CNCP(=O)(O)O [Glyphosate]
[6]
  Growth of M. grisea on various nitrogen sources, Tier 4: inhibited growth of M. grisea when nitrate, nitrite, or glutamate was provided as the sole nitrogen source; also recorded: Little growth defect was observed when ammonium or glutamine was provided
[6]; 250 μg/ml
  Growth results for Tiers 3 and 4: nearly identical as compared to Unknown 4
[6]; 1.0 mg/ml
  Growth inhibition of M. grisea and its remediation: remediated by inclusion of aromatic amino acids to the media
[1]
  Characteristic symptoms of treated plants (in words): anthocyanin accumulation in the older leaves accompanied by chlorosis of the newly emerging leaves
  leafCurling (Dev.): 0
  leafTwisting (Dev.): 0
  leafWidth (Dev.): 0
  matureLeafAnthocyanins (Dev.): 3
  matureLeafChlorosis (Dev.): 1
  matureLeafNecrosis (Dev.): 3
  newLeafAnthocyanins (Dev.): 1
  newLeafChlorosis (Dev.): 2
  newLeafNecrosis (Dev.): 0
  pointedLeaves (Dev.): 1
  tMic (Dev.): 2
[4]
  Regulated metabolites relative to control (in words): (tyrosine), decreased relative to the control after one hour

## CC(C)C1(C)N=C(c2ncccc2C(=O)O)NC1=O (stereo not shown) [Imazapyr]
[1]
  Characteristic symptoms of treated plants (in words): anthocyanin accumulation in the older leaves accompanied by chlorosis of the newly emerging leaves
[4]
  Regulated metabolites relative to control (in words): Only a few, if any, stress-related metabolites were observed

## CCc1cnc(C2=NC(C)(C(C)C)C(=O)N2)c(C(=O)O)c1 (stereo not shown) [Imazethapyr]
[1]
  Characteristic symptoms of treated plants (in words): anthocyanin accumulation in the older leaves accompanied by chlorosis of the newly emerging leaves

## CS(=O)(=O)c1cc(C(F)(F)F)ccc1C(=O)c1cnoc1C1CC1 [Isoxaflutole]
[6]; concentration insufficient to inhibit growth
  Growth of M. grisea at a sub-inhibitory concentration (minimal, supplemented, minimal plus tyrosine media): growth was inhibited in minimal plus tyrosine media, while growth in minimal media was unaffected
[3]
  Gene expression perturbation (in words): alterations in the expression of genes involved in the homogentisate biosynthetic pathway were not observed
[3]; 1 hr
  No. of Lethal Genes Altered: 15
[4]
  Regulated metabolites relative to control (in words): both tyrosine and phenylalanine were up-regulated relative to the control; also recorded: Alpha-tocopherol was detected, but the levels were not significantly changed relative to the control at the early time points; also recorded: (tyrosine and phenylalanine), began to accumulate relative to the control after one hour

## CC(=O)N1CCN(c2ccc(OCC3COC(Cn4ccnc4)(c4ccc(Cl)cc4Cl)O3)cc2)CC1 (stereo not shown) [Ketoconazole]
[5]; P < 0.1, 2X MIC, two hours
  # Compounds perturbed by treatment: 15

## CSc1nnc(C(C)(C)C)c(=O)n1N [Metribuzin]
[1]
  Characteristic symptoms of treated plants (in words): rapid and widespread leaf necrosis

## O=C(O)c1ccccc1C(=O)Nc1cccc2ccccc12 [Naptalam]
[3]; [7]
  Regulated Genes Following Herbicide Treatment: Down: 47
  Regulated Genes Following Herbicide Treatment: Up: 50
[3]
  Gene expression perturbation (in words): fewest gene expression perturbations
[3]; 1 hr
  No. of Lethal Genes Altered: 3

## CNc1cnn(-c2cccc(C(F)(F)F)c2)c(=O)c1Cl [Norfluazon, Norflurazon]
[4]
  Regulated metabolites relative to control (in words): Only a few, if any, stress-related metabolites were observed

## C[n+]1ccc(-c2cc[n+](C)cc2)cc1 [Paraquat]
[1]
  Characteristic symptoms of treated plants (in words): rapid and widespread leaf necrosis
  leafCurling (Dev.): 2
  leafTwisting (Dev.): 0
  leafWidth (Dev.): −1
  matureLeafAnthocyanins (Dev.): 0
  matureLeafChlorosis (Dev.): 1
  matureLeafNecrosis (Dev.): 4
  newLeafAnthocyanins (Dev.): 0
  newLeafChlorosis (Dev.): 1
  newLeafNecrosis (Dev.): 4
  pointedLeaves (Dev.): 1
  tMic (Dev.): 2

## CC[C@@H]([C@H](C)O)n1ncn(-c2ccc(N3CCN(c4ccc(OC[C@@H]5CO[C@@](Cn6cncn6)(c6ccc(F)cc6F)C5)cc4)CC3)cc2)c1=O [Posaconazole]
[5]; metabolite NacetylDglucosamine, platform nLC, p-Value 1
  Fold Change, NacetylDglucosamine: 0
[5]; metabolite NacetylLglucosamine, platform pLC, p-Value 1
  Fold Change, NacetylLglucosamine: 0
[5]; metabolite NacetylLglutamate, platform pLC, p-Value 1
  Fold Change, NacetylLglutamate: 0
[5]; metabolite NacetylLornithine, platform nLC, p-Value 1
  Fold Change, NacetylLornithine: 0
[5]; metabolite niacinamide, platform pLC, p-Value 1
  Fold Change, niacinamide: 0
[5]; metabolite nopaline, platform pLC, p-Value 1
  Fold Change, nopaline: 0
[5]; metabolite ornithine3, platform GC, p-Value 0.965157424
  Fold Change, ornithine3: 0.041
[5]; metabolite orotic acid, platform nLC, p-Value 1
  Fold Change, orotic acid: 0
[5]; metabolite phenylpyruvic acid, platform nLC, p-Value 1
  Fold Change, phenylpyruvic acid: 0
[5]; platform LC, p-Value 1
  Fold Change, phosphoenolpyruvate: 0
[5]; platform nLC, p-Value 1
  Fold Change, phosphoenolpyruvate: 0
  Fold Change, thymine: 0
  Fold Change, urocanic acid: 0
  Fold Change, zeatin: 0
[5]; metabolite pinitol, platform nLC, p-Value 1
  Fold Change, pinitol: 0
[5]; metabolite progesterone, platform pLC, p-Value 1
  Fold Change, progesterone: 0
[5]; metabolite retinoic acid, platform nLC, p-Value 1
  Fold Change, retinoic acid: 0
[5]; metabolite riboflavin, platform pLC, p-Value 1
  Fold Change, riboflavin: 0
[5]; metabolite salicylic/HObenzoic, platform nLC, p-Value 1
  Fold Change, salicylic/HObenzoic: 0
[5]; metabolite shikimic acid, platform nLC, p-Value 1
  Fold Change, shikimic acid: 0
[5]; metabolite sinapinic acid, platform nLC, p-Value 1
  Fold Change, sinapinic acid: 0
[5]; metabolite sugar-phosphate, platform pLC, p-Value 1
  Fold Change, sugar-phosphate: 0
[5]; metabolite thiamine, platform pLC, p-Value 1
  Fold Change, thiamine: 0
[5]; platform pLC, p-Value 1
  Fold Change, thymine: 0
  Fold Change, urocanic acid: 0
  Fold Change, zeatin: 0
[5]; metabolite tryptophan, platform pLC, p-Value 1
  Fold Change, tryptophan: 0
[5]; metabolite uric acid, platform pLC, p-Value 1
  Fold Change, uric acid: 0
[5]; metabolite xanthosine(diH2O), platform pLC, p-Value 1
  Fold Change, xanthosine(diH2O): 0
[5]; metabolite xanthosineDiH2O, platform nLC, p-Value 1
  Fold Change, xanthosineDiH2O: 0

## CC[C@@H]([C@H](C)O)n1ncn(-c2ccc(N3CCN(c4ccc(OC[C@@H]5CO[C@@](Cn6cncn6)(c6ccc(F)cc6F)C5)cc4)CC3)cc2)c1=O [Posaconazote]
[5]; metabolite porphobilinogen, platform nLC, p-Value 1
  Fold Change, porphobilinogen: 0
